Source: paper PMC5465999, “Design of new acid-activated cell-penetrating peptides for tumor drug delivery” (PeerJ, 2017)
Where a SMILES comes first, the peptide text is derived from it. [ ]: non-standard residue; d: D form. Aib = CC(C)(N)C(=O)O

Key:
[1] = RP-HPLC retention time on C18 column (hydrophobicity); assay type: physicochemical; settings: for RP-HPLC retention times: analytical RP-HPLC, C18, sunfire column 3.9 mm × 150 mm, Waters, used as measure of hydrophobicity
Experimental: All peptides shown in Table 1 were synthesized on a MBHA (0.43mmol/g) resin using the standard Fmoc-chemistry-based strategy. Fluorescein moiety (FITC) was attached to the N-terminusvia an aminohexanoic acid spacer by treating the resin-bound peptide (0.1 mmol) with FITC (0.1 mmol) and diisopropyl ethyl amine (0.5 mmol) in DMF for 12 h. All crude peptides were purified and analyzed by reversed-phase high performance liquid chromatography (RP-HPLC) on a C18 column, and then characterized by electrospray ionization mass spectrometry (ESI-MS).
Generally, cationic CPPs can bind on the anionic membrane surfaces via electrostatic interaction and promote cellular uptake ([Poon & Gariepy, 2007]). Thus, cationic functionalityis a critical factor for cell penetration. Histidine is especially pH-responsive ([Zaro, Fei & Shen, 2012]; [Ouahab et al., 2014]). Due to the presence of an imidazole ring, it has the ability to receive protons and protonate into a positive charge in an acidic tumor environment, whereas it remains predominantly uncharged under normal physiological conditions. The pH-responsiveness of histidine has been widely utilizedin the design of pH-responsive CPPs for targeted drug delivery. The protonation ability of histidine’simidazole moiety is the key for pH-dependent cellular uptake of histidine-rich peptides. […] In this regard, this study focused on the development of new histidine analogs that enhance the protonation of histidine by introducing alkylated groups with different electron-donating ability.

[2] = system: HeLa cells; assay: Quantitative cellular uptake assay (flow cytometry) of FITC-labeled peptides; assay type: cell-based; settings: 1 h; for pH-responsive effect (change of fluorescence from pH 7.4 to pH 6.0) relative to TH / fluorescence intensity / cellular uptake relative to TH: 5 µM FITC-labeled peptide; for fluorescence intensity / cellular uptake relative to TH: all pH values (7.4, 6.5, 6.0)
Experimental: The cells were harvested and centrifuged at 1,000 rpm for 5 min. Subsequently, the cell pellet was suspended and washed twice with PBS and resuspended in PBS. Finally, fluorescence intensity of 10,000 cells was analyzed with an FACS caliber flow cytometer using 488-nm laser excitation.

[3] = system: HeLa cells; assay: Confocal laser scanning microscopy of FITC-labeled peptides; assay type: cell-based; settings: CLSM, 5 µM FITC-labeled peptide, 1 h, 37°C; for pH-responsiveness of cellular uptake: pH 7.4, 6.5, 6.0
Experimental: To obtain a direct insight into the distribution of FITC-labeled peptides in cells, HeLa cells (6 × 10^4 cells/well) were plated in a glass-bottom culture dish for 24 h and then incubated with the FITC-labeled peptides using conditions and concentrations described above. After 1 h incubation at 37°C, the cells were washed with cold PBS three times and imaged using confocal laser scanning microscopy.

[4] = system: HeLa cells; settings: 2 h incubation, MTT; for cytotoxicity: pH 6.0, 20 µM; for viability of cells: pH 7.4 and pH 6.5, different concentrations
Experimental: Cytotoxicity of all peptides against HeLa cells was evaluated using the MTT assay under varying pH conditions (pH 7.4, 6.5 and 6.0). Cells were seeded at 1 × 10^4 cells/well in 96-well plates, 24 h before treatment. After washing, cells were treated with serum-free medium, adjusted to pH 7.4, 6.5 or 6.0, and containing various concentrations of peptides. After 2 h incubation, 10 µL of MTT (5 mg/mL) was added to each well and incubated for another 4 h at 37°C. Then, the medium was removed and cells were dissolved by 150 µL dimethyl sulfoxide. Absorbance was determined using a microplate reader at 490 nm. Cell viability (%) was calculated using the following equation: Atest∕Acontrol × 100%, where Atest and Acontrol represent the absorbance of cells treated with different test solutions and blank culture media, respectively.

[5] = system: HeLa cells; settings: 2 h incubation, n = 3; for LDH levels with decreasing pH: pH 7.4, 6.5, 6.0
Experimental: Membrane integrity was evaluated using the CytoTox-ONE assay. Cells were seeded at 1 ×10^4cells/well in a 96-well plate 24 h before treatment. After 2 h incubation with 100 µL serum-free medium, adjusted to pH 7.4, 6.5 or 6.0 and containing various concentrations of peptides, 40 µL of medium was transferred to a black fluorescence plate and incubated for 10 min with 40 µL of CytoTox-ONE reagent, followed by 20 µL of stop solution. Fluorescence was recorded with an excitation wavelength of 560 nm and emission wavelength of 590 nm. Untreated cells were defined as those where no leakage was observed while 100% leakage was defined as a total release of LDH due to cell lysis in 0.2% Triton X-100.

[6] = system: mice red blood cells; settings: mouse erythrocytes in PBS, 1 h at 37°C; maximum concentration of 200 µM; n = 3
Experimental: Fresh mouse blood was collected in heparin sodium-containing centrifuge tubes. Erythrocytes were separated by centrifugation at 800×g for 10 min and washed three times with phosphate buffered saline (PBS). Obtained erythrocytes were resuspended in PBS to 8 % (v/v). 100 µL of the peptide solution of various concentrations and 100 µL of the erythrocyte suspension were added to the wells of a 96-well plate. PBS and 0.2 % TritonX-100 were used as agents for 0 % and 100 % hemolysis, respectively. Plates were incubated for 1 h at 37°C and centrifuged at 1,200×g for 15 min. A total of 100 µL of each supernatant was transferred to a 96-well plate, and the release of hemoglobin was determined using a microplate reader at 490 nm.

[7] = in vitro and in vivo conditions; ref Zhang et al., 2011; cited from earlier work
Description: In recent years, pH-responsive CPPs have been developed for targeted delivery based on the pH gradient between the tumor tissues and physiological environment ([Lee, Gao & Bae, 2008]; [Shi et al., 2015]; [Jiang et al., 2012]; [Fei et al., 2014]). […] The acidic tumor microenvironment mandates the development of pH-responsive CPPs for improved s ...

[8] = parameters: method as in Zaro, Fei & Shen, 2012; Ouahab et al., 2014; settings: ref Zaro, Fei & Shen, 2012; Ouahab et al., 2014; cited from earlier work
Description: However, due to the imidazole on histidine with a pKa around 6.5, histidine could protonate into a net positive charge at pH values below 6.5 ([Zaro, Fei & Shen, 2012]; [Ouahab et al., 2014]), thereby activating the membrane penetrating activity of TH and allowing its entry into the cells. However, histidine becomes relatively insensitive to the tumor extracellular environment when the pH is in the 6.5–7.2 range, thereby reducing the pH-dependent penetrating activity of TH. In order to extend the applications of acid-activated CPPs, it is necessary to improve their pH-response. The ability of ...

| Molecule | RP-HPLC retention times [1] | pH-responsive effect (change of fluorescence from pH 7.4 to pH 6.0) relative to TH [2] | pH-responsiveness of cellular uptake [3] | cytotoxicity [4] | viability of cells [4] | LDH levels with decreasing pH [5] | fluorescence intensity / cellular uptake relative to TH [2] | cytotoxic variation from pH 7.4 to pH 6.0 [4] | LDH levels at pH 6.5 and pH 6.0 relative to pH 7.4 [5] | other results |
| --- | --- | --- | --- | --- | --- | --- | --- | --- | --- | --- |
| AGYLLGHEINLHEHELAHEL(Aib)HEHEIL-NH2 [Ethyl-TH] | 18.623 min | better than TH | better pH-dependent cellular uptake than TH at pH 6.0 | increased | higher than 80% | rose as the pH value decreased |  |  |  | fluorescence intensity relative to TH ([2]; pH 7.4 and 6.5, 5 µM FITC-labeled peptide): lower fluorescence intensity than TH; LDH release in comparison with TH and the other analogs ([5]; pH 6.0): most obvious LDH release |
| CC[C@H](C)[C@H](NC(=O)[C@H](Cc1c[nH]cn1)NC(=O)[C@H](Cc1c[nH]cn1)NC(=O)C(C)(C)NC(=O)[C@H](CC(C)C)NC(=O)[C@H](Cc1c[nH]cn1)NC(=O)[C@H](C)NC(=O)[C@H](CC(C)C)NC(=O)[C@H](Cc1c[nH]cn1)NC(=O)[C@H](Cc1c[nH]cn1)NC(=O)[C@H](CC(C)C)NC(=O)[C@H](CC(N)=O)NC(=O)[C@@H](NC(=O)[C@H](Cc1c[nH]cn1)NC(=O)CNC(=O)[C@H](CC(C)C)NC(=O)[C@H](CC(C)C)NC(=O)[C@H](Cc1ccc(O)cc1)NC(=O)CNC(=O)[C@H](C)N)[C@@H](C)CC)C(=O)N[C@@H](CC(C)C)C(N)=O [TH] (H-AGYLLGHINLHHLAHL[Aib]HHIL-NH2) |  |  |  | increased | higher than 80% | rose as the pH value decreased |  |  |  | hemolytic activity (cytotoxicity against red blood cells) [6]: little cytotoxicity against red blood cells; toxicity compared to TK [7]: decreased |
| AGYLLGHBINLHBHBLAHBL(Aib)HBHBIL-NH2 [Butyl-TH] | 20.561 min |  | more pH-responsive at pH 6.5 |  |  |  | increased remarkably | didn’t show obvious cytotoxic variation | comparable to that at pH 7.4 | fluorescence intensity, fold higher than TH ([2]; pH 6.5, 5 µM FITC-labeled peptide, serum-free medium): approximately 1.72 fold |
| AGYLLGHIINLHIHILAHIL(Aib)HIHIIL-NH2 [Isopropyl-TH] | 19.041 min | lower than that of TH | no pH-responsive at pH 6.5 |  |  |  |  | didn’t show obvious cytotoxic variation | comparable to that at pH 7.4 | fluorescence intensity at pH 6.5 relative to pH 7.4 [3]: slightly lower than that at pH 7.4 |
| AGYLLGHMINLHMHMLAHML(Aib)HMHMIL-NH2 [Methyl-TH] | 18.058 min |  | poor pH-responsiveness |  |  |  | reduction of cellular uptake |  | comparable to that at pH 7.4 | hydrophobicity relative to TH ([1]; from retention time on the C18 reverse-phase HPLC column): less hydrophobic than TH; cellular uptake relative to TH ([3]; pH 6.5 and pH 6.0): lower cellular uptake than TH; cytotoxicity at low pH ([4]; pH 6.5 and pH 6.0): didn’t show any significant cytotoxicity |
| N[C@@H](Cc1c[nH]cn1)C(=O)O [histidine] |  |  |  |  |  |  |  |  |  | pKa of the imidazole on histidine [8]: around 6.5 |
